# PubChem BioAssay (NCI)
#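 A five-concentration, 48-hour dose response in 96-well plates underlies each endpoint, interpolated linearly between surrounding concentrations. GI50: concentration for 50% inhibition of growth. TGI: total growth inhibition.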
# Key:
# Assay in all cases: NCI anticancer screen, dose series, 48 h
# [1] = test system: T-47D breast
# [2] = test system: NCI-H460 lung
# [3] = test system: IGROV1 ovarian
# [4] = test system: NCI-H226 lung
# [5] = test system: M14 melanoma
# [6] = test system: U251 CNS
# [7] = test system: COLO 205 colon
# [8] = test system: SK-MEL-5 melanoma
# [9] = test system: OVCAR-5 ovarian
# [10] = test system: SN12C renal
Structure (SMILES),TGI [1] [µM],TGI [2] [µM],TGI [3] [µM],TGI [4] [µM],TGI [5] [µM],TGI [6] [µM],TGI [7] [µM],TGI [8] [µM],TGI [9] [µM],TGI [10] [µM],GI50 [1] [µM],GI50 [2] [µM],GI50 [3] [µM],GI50 [4] [µM],GI50 [5] [µM],GI50 [6] [µM],GI50 [7] [µM],GI50 [8] [µM],GI50 [9] [µM],GI50 [10] [µM]
Clc1ccc(-c2nn3c(COc4cccc(OCc5nnc6sc(-c7ccc(Cl)cc7)nn56)c4)nnc3s2)cc1,57,> 100,> 100,> 100,75.9,61.3,82.9,50.7,74.4,29.1,–,–,–,–,–,–,–,–,–,–
O=C(Nc1ccc(-n2cc(-c3ccncc3)c(-c3ccc(O)c(Cl)c3)n2)cc1)c1ccc(Cl)c(C(F)(F)F)c1,37.2,> 50,> 50,> 50,2.08,6.76,26,5.67,> 50,> 50,3.43,1.94,15.6,> 50,0.946,0.867,7.67,1.46,10.1,2.57
